Values quoted from earlier work, collected in patent US20260248129A1, “SPRAYABLE SUBSTANCES FOR PHOTOSYNTHESIS ENHANCEMENT” (Sensei Ag Holdings, Inc., priority 2023, published 2026).
≈ marks a conversion by molar mass, not a printed value. Read-outs that look alike come from different tables or passages of the source.

Legend:
[1] = ethanol, methanol, hexane, ether, and a variety of other solvents
[2] = not given; remark: listed apart in the source

SMILES | solubility in organic solvents (in words) [1] | solubility in water (in words) (water) | water solubility (water at 25° C.) [mg/L] | stability under light (in words) [2] | water solubility (water) [mg/100 mL]
c1ccc2cc3ccccc3cc2c1 [anthracene, Anthracene] | very soluble | slightly soluble | 0.044 (≈ 0.247 µM) | does eventually degrade under light | 
O=c1ccc2ccccc2o1 [coumarin, Coumarin] |  |  |  |  | 0.17
